According to patent US20240246918A1, “COMPOUNDS AND COMPOSITIONS AS EIF4E INHIBITORS AND THE USES THEREOF” (Ribometrix, Inc., priority 2022, published 2024):
Like-named read-outs stand apart in the source and are kept apart here.

Tests used:
[1] = system: cap-dependent translation in Flp-In-293 reporter cells; experiment: Cellular cap-dependent translation inhibition assay (dual luciferase assay, DLA; Fluc/Rluc ratio, 24 hours); assay type: cell-based; conditions: dual luciferase assay, Flp-In-293 reporter cells, 24 hours, Fluc/Rluc ratio, read-out: DLA 205 IC50
human eIF4E protein = biological target: T1, human eIF4E protein (Homo sapiens, UniProt P06730); experiment: Biochemical competitive binding assay (TR-FRET competition, EDA-m7GDP-ATTO-647N probe); conditions: read-out: hEIF4E TR-FRET IC50
T1 construct: purchased Novus NBP-45314
T1 sequence (P06730 whole entry): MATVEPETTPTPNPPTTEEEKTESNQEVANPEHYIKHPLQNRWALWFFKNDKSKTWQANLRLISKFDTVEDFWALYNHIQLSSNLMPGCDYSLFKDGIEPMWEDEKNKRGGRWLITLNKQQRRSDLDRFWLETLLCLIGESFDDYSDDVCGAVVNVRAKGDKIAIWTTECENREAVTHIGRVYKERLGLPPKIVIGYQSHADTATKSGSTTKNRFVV
Method in brief: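 His-tagged human eIF4E (4 nM) was preincubated with Eu-anti-His antibody (2.5 nM) and added to compound (11-point, 4-fold dilutions) for 15 min. Then 5 nM EDA-m7GDP-ATTO-647N was added for 15 min, in HEPES pH 7.5, 100 mM KCl. The 665/620 TR-FRET ratio was normalized to controls, and IC50 was taken from 4-parameter fits.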

[2] = system: cyclin D1 protein levels in COLO 205 cells; experiment: Cyclin D1 cellular inhibition assay (HTRF, 6 hours); assay type: cell-based; conditions: 6 hours of compound treatment, Cyclin D1 protein levels by HTRF, read-out: COLO 205 6 h Cyclin D1 TR-FRET IC50
Method in brief: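 COLO 205 cells in RPMI-1640 with 10% FBS treated 6 h with 11-point compound dilutions at 1% DMSO final. Lysates assayed for cyclin D1 by HTRF. Signal normalized to DMSO and maximum-inhibition controls, with IC50 from 4-parameter fit.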

[3] = system: COLO 205 colorectal tumor cells; experiment: Tumor cell viability inhibition assay (CellTiter-Glo 2.0, 72 hours); assay type: cell-based; conditions: COLO 205 cell viability
Method in brief: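 COLO 205 cells (1500/well, RPMI-1640 + 10% FBS) exposed for 72 h to an 11-point, 4-fold dilution series; cellular ATP read by CellTiter-Glo 2.0 luminescence. Data normalized to DMSO and maximum-inhibition controls; IC50 from 4-parameter curve fit.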

SMILES	IC50 ([1]; Homo sapiens, Flp-In-293, 24 h)	IC50 (human eIF4E protein)	IC50 [2]	IC50 ([3]; Homo sapiens, COLO 205, 72 h)	IC50 [1]	IC50 [3]	IC50 ([2]; Homo sapiens, COLO 205, 6 h)
Cc1cc(-c2cc(Cl)ccc2OCCn2c(C)nc3c(c2=O)CC(N(C)C)CC3)c2scc(C(=O)O)c2n1 (single isomer, unassigned) [Compound 13]	< 1 µM	< 0.1 µM	< 5 µM	< 5 µM			
Cc1cc(-c2cc(Cl)ccc2OCCn2c(C)nc3c(c2=O)CC(N(C)C)CC3)c2scc(C(=O)O)c2n1 (single isomer, unassigned) [Compound 14]		< 0.1 µM	> 20 µM		1 to 5 µM	5 to 20 µM	
CO[C@@H]1CCN([C@@H]2CCc3nc(C)n(CCOc4ccc(Cl)cc4-c4cc(C)nc5c(C(=O)O)csc45)c(=O)c3C2)C1 (single isomer, unassigned) [Compound 42]	< 1 µM	< 0.1 µM		< 5 µM			< 5 µM
Cc1cc(-c2cc(Cl)ccc2OCCn2c(C)nc3c(c2=O)CC(N2CC4COCC4C2)CC3)c2scc(C(=O)O)c2n1 (single isomer, unassigned) [Compound 70]		< 0.1 µM			< 1 µM		< 5 µM
Cc1cc(-c2cc(Cl)ccc2OCCn2c(C)nc3c(c2=O)CC(N2CCCCC2)CC3)c2scc(C(=O)NS(C)(=O)=O)c2n1 (single isomer, unassigned) [Compound 241]	< 1 µM	< 0.1 µM		< 5 µM			< 5 µM
Cc1cc(-c2cc(Cl)ccc2OCCn2c(C)nc3c(c2=O)CC(N(C)C2(C4CCC4)CC2)CC3)c2scc(C(=O)O)c2n1 (single isomer, unassigned) [Compound 242]	< 1 µM	< 0.1 µM		< 5 µM			< 5 µM
Cc1cc(-c2cc(Cl)ccc2OCCn2c(C)nc3c(c2=O)CC(N(C)C2(C4CCC4)CC2)CC3)c2scc(C(=O)O)c2n1 (single isomer, unassigned) [Compound 243]		< 0.1 µM	5 to 20 µM		1 to 5 µM	5 to 20 µM	
Cc1cc(-c2cc(Cl)ccc2OCCn2c(C)nc3c(c2=O)CC(N(C)Cc2cncnc2)CC3)c2scc(C(=O)O)c2n1 (stereo not drawn) [Compound 187]		< 0.1 µM		< 5 µM			5 to 20 µM
Cc1cc(-c2cc(Cl)ccc2OCCn2c(C)nc3c(c2=O)CC(N(C)Cc2ccnnc2)CC3)c2scc(C(=O)O)c2n1 (stereo not drawn) [Compound 188]		< 0.1 µM		> 20 µM			> 20 µM
Cc1cc(-c2cc(Cl)ccc2OCCn2c(C)nc3c(c2=O)CC(N(C)Cc2ncc[nH]2)CC3)c2scc(C(=O)O)c2n1 (stereo not drawn) [Compound 190]		< 0.1 µM		> 20 µM			> 20 µM
Cc1cc(-c2cc(Cl)ccc2OCCn2c(C)nc3c(c2=O)CC(N(C)Cc2ccsc2)CC3)c2scc(C(=O)O)c2n1 (stereo not drawn) [Compound 191]		< 0.1 µM		< 5 µM			< 5 µM
Cc1cc(-c2cc(Cl)ccc2OCCn2c(C)nc3c(c2=O)CC(N2CCC4(CC2)CC4)CC3)c2scc(C(=O)O)c2n1 (stereo not drawn) [Compound 192]		< 0.1 µM		< 5 µM			< 5 µM
Cc1cc(-c2cc(Cl)ccc2OCCn2c(C)nc3c(c2=O)CC(N(C)[C@H]2C[C@](C)(O)C2)CC3)c2scc(C(=O)O)c2n1 (stereo partly drawn) [Compound 193]		< 0.1 µM		> 20 µM			> 20 µM
Cc1cc(-c2cc(Cl)ccc2OCCn2c(C)nc3c(c2=O)CC(N2CCC4(C2)CC(F)(F)C4)CC3)c2scc(C(=O)O)c2n1 (stereo not drawn) [Compound 194]		< 0.1 µM		< 5 µM			< 5 µM
Cc1cc(-c2cc(Cl)ccc2OCCn2c(C)nc3c(c2=O)CC(N2CC4(C2)CC(O)(C(F)(F)F)C4)CC3)c2scc(C(=O)O)c2n1 (stereo not drawn) [Compound 195]		< 0.1 µM		> 20 µM			> 20 µM
Cc1cc(-c2cc(Cl)ccc2OCCn2c(C)nc3c(c2=O)CC(N(C)Cc2cccnc2)CC3)c2scc(C(=O)O)c2n1 (stereo not drawn) [Compound 196]		< 0.1 µM		< 5 µM			< 5 µM

SMILES	IC50 ([1]; Homo sapiens, Flp-In-293, 24 h)	IC50 (human eIF4E protein)	IC50 [2]	IC50 ([3]; Homo sapiens, COLO 205, 72 h)	IC50 [1]	IC50 [3]	IC50 ([2]; Homo sapiens, COLO 205, 6 h)
Cc1cc(-c2cc(Cl)ccc2OCCn2c(C)nc3c(c2=O)CC(N(C)Cc2cccs2)CC3)c2scc(C(=O)O)c2n1 (stereo not drawn) [Compound 197]		< 0.1 µM		< 5 µM			< 5 µM
Cc1cc(-c2cc(Cl)ccc2OCCn2c(C)nc3c(c2=O)CC(N(C)Cc2ccnc(C(F)(F)F)c2)CC3)c2scc(C(=O)O)c2n1 (stereo not drawn) [Compound 198]		< 0.1 µM		< 5 µM			< 5 µM
Cc1cc(-c2cc(Cl)ccc2OCCn2c(C)nc3c(c2=O)CC(N(C)Cc2cnccn2)CC3)c2scc(C(=O)O)c2n1 (stereo not drawn) [Compound 199]		< 0.1 µM		< 5 µM			< 5 µM
Cc1cc(-c2cc(Cl)ccc2OCCn2c(C)nc3c(c2=O)CC(N(C)Cc2ccccn2)CC3)c2scc(C(=O)O)c2n1 (stereo not drawn) [Compound 200]		< 0.1 µM		< 5 µM			< 5 µM
Cc1cc(-c2cc(Cl)ccc2OCCn2c(C)nc3c(c2=O)CC(N(C)Cc2ccc(C(F)(F)F)cc2)CC3)c2scc(C(=O)O)c2n1 (stereo not drawn) [Compound 201, 7-(5-chloro-2-(2-(2-methyl-6-(methyl(4-(trifluoromethyl)benzyl)amino)-4-oxo-5,6,7,8-tetrahydroquinazolin-3(4H)-yl)ethoxy)phenyl)-5-methylthieno[3,2-b]pyridine-3-carboxylic acid]		< 0.1 µM		< 5 µM			< 5 µM
Cc1cc(-c2cc(Cl)ccc2OCCn2c(C)nc3c(c2=O)CC(N(C)Cc2ncccn2)CC3)c2scc(C(=O)O)c2n1 (stereo not drawn) [Compound 202]		< 0.1 µM		> 20 µM			5 to 20 µM
Cc1cc(-c2cc(Cl)ccc2OCCn2c(C)nc3c(c2=O)CC(N(C)C2CC4(C2)CC(F)(F)C4)CC3)c2scc(C(=O)O)c2n1 (stereo not drawn) [Compound 203]		< 0.1 µM		< 5 µM			< 5 µM
Cc1cc(-c2cc(Cl)ccc2OCCn2c(C)nc3c(c2=O)CC(N(C)C[C@H]2C[C@@H](C(F)(F)F)C2)CC3)c2scc(C(=O)O)c2n1 (stereo partly drawn) [Compound 204]		< 0.1 µM		< 5 µM			< 5 µM
Cc1cc(-c2cc(Cl)ccc2OCCn2c(C)nc3c(c2=O)CC(N(C)CC24CC(C2)C4)CC3)c2scc(C(=O)O)c2n1 (stereo not drawn) [Compound 205]		< 0.1 µM		< 5 µM			< 5 µM
Cc1cc(-c2cc(Cl)ccc2OCCn2c(C)nc3c(c2=O)CC(N2CCC(OCCO)CC2)CC3)c2scc(C(=O)O)c2n1 (stereo not drawn) [Compound 208]		< 0.1 µM		> 20 µM			> 20 µM
Cc1cc(-c2cc(Cl)ccc2OCCn2c(C)nc3c(c2=O)CC(N2CCC(C)(O)CC2)CC3)c2scc(C(=O)O)c2n1 (stereo not drawn) [Compound 209]		< 0.1 µM		> 20 µM			> 20 µM
Cc1cc(-c2cc(Cl)ccc2OCCn2c(C)nc3c(c2=O)CC(N2CCC4(CC2)CC(O)(C(F)(F)F)C4)CC3)c2scc(C(=O)O)c2n1 (stereo not drawn) [Compound 212]		< 0.1 µM		5 to 20 µM			5 to 20 µM
Cc1nc2c(c(=O)n1CCOc1ccc(Cl)cc1-c1ccnc(C(=O)O)c1)CC(N(C)CC1CC(F)(F)C1)CC2 (stereo not drawn) [Compound 219]		< 0.1 µM		> 20 µM			> 20 µM
Cc1cc(-c2cc(Cl)ccc2OCCn2c(C)nc3c(c2=O)CC(N(C)Cc2cccc(OC(F)(F)F)c2)CC3)c2scc(C(=O)O)c2n1 (stereo not drawn) [Compound 222]		< 0.1 µM		< 5 µM			< 5 µM
Cc1cc(-c2cc(Cl)ccc2OCCn2c(C)nc3c(c2=O)CC(N(C)C)CO3)c2scc(C(=O)O)c2n1 (stereo not drawn) [Compound 230]		< 0.1 µM		5 to 20 µM			5 to 20 µM
